Experiment [1] deals with T1, S1P1 (Homo sapiens, UniProt P21453). The experiment can be described thus: Tango β-arrestin Recruitment Assay in HEK293 cells (Assay 2a). The experiment is classed as cell-based. On the set-up: linker with TEV protease (N1a) cleavage site (C); host or cells: HEK293, transiently transfected. To be noted: Tango β-arrestin Recruitment Assay, read-out: Assay 2a EC50. The gist of the method: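 HEK293 cells transiently expressing S1P1 (TEV-cleavable tTA fusion) with β-arrestin2–TEV; compounds up to 10 μM, 10-point 3-fold, 1% DMSO, 30 min then 16–18 h at 37 °C. Luciferase luminescence normalised to 5 μM S1P as 100% and DMSO as background; EC50 from percent-activity curves.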
A general note: Recruitment of arrestin is a read-out of receptor activation apart from second messengers.
Target sequence in this assay (P21453 whole entry, the tested form may be a part): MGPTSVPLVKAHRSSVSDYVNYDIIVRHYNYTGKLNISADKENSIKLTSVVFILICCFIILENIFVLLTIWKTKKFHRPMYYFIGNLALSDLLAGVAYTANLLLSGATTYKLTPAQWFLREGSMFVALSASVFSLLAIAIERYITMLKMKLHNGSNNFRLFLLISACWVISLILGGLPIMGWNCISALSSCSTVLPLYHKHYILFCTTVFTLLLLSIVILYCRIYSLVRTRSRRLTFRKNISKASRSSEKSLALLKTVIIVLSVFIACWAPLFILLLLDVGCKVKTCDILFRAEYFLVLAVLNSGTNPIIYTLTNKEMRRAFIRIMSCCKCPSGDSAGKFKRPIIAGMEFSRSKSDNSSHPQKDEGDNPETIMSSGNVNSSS
Target sequence in this assay (P32121 whole entry partner, the tested form may be a part): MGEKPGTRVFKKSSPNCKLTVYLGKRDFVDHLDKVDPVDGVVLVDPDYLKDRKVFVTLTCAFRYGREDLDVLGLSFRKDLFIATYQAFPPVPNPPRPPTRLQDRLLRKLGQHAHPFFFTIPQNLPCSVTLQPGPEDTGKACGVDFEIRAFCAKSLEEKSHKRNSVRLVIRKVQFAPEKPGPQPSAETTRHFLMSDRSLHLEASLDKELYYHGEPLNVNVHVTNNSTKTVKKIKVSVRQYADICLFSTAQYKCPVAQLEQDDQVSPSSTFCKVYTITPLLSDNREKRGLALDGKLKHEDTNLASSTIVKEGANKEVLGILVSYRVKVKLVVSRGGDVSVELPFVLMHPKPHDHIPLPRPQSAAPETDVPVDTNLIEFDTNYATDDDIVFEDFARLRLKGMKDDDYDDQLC

Experiment [2] deals with T1, S1P1. The experiment can be described thus: DELFIA GTP-Eu Binding Assay (Assay 3b). It is filed as biochemical. On the set-up: purchased Lonza; host or cells: CHO cell membranes. The following applies: read-out: Assay 3b EC50. As for the experimental part: The DELFIA GTP-Eu binding assay (PerkinElmer) is a time-resolved fluorometric assay based on GDP-GTP exchange. CHO cell membranes (Lonza) expressing human S1P1 were incubated in 96-well filter plates (Pall, East Hills, N.Y.) in a final volume of 100 μL/well buffer containing 40 μg/mL membrane, 50 mM HEPES, 2 μM GDP, 10 mM MgCl2, 100 mM NaCl, 500 μg/mL Saponin and test compound. Test compounds were tested at maximum concentrations of 10 μM. Compounds were diluted (10 concentration points, 3-fold each) and added to the assay plate at a 1% final DMSO concentration. For each compound, there were duplicate assay plates and each assay plate had duplicate wells per concentration point. The plates were incubated for 30 min at room temperature on a plate shaker at low speed. GTP-Eu was added to each well (10 μL, 10 nM final concentration) and the plate was incubated for an additional 30 min with slow shaking The wells were washed with ice cold GTP washing buffer (3×150 μL) using a vacuum manifold and the assay plates read in an EnVision plate reader (PerkinElmer) at an excitation wavelength of 340 nm and an emission wavelength of 615 nm. To determine agonist activity, percent activity was calculated as [(test compound−background)/(positive control−background)*100], where background is the fluorescence in absence of compound and the positive control is the fluorescence from membranes incubated with 1 μM S1P (Avanti). The percent activities were plotted against compound concentration to determine IC50 or EC50 using XLFit (IDBS).
Assay 1 is the CNG cAMP Assay as described in Biological Example 1. Assay 2a and 2b are the Tango™ β-arrestin Recruitment Assay in HEK293 and U2OS cells, respectively, as described in Biological Example 2. Assay 3a is the hS1P1R GTPγS Binding Assay as described in Biological Example 3. Assay 3b is the GTP-Eu Binding Assay as described in Biological Example 3. EC50's were measured unless otherwise noted. […] In the table, “nt” means the Compound was not tested and “no” means the compound was tested but had no measurable activity under the assay conditions employed.
Target sequence in this assay (P21453 whole entry, the tested form may be a part): as the sequence (P21453 whole entry, the tested form may be a part) above

Experiment [3] deals with T2, hS1P1R (hEdg1) (Homo sapiens, UniProt P21453).
T2 construct: purchased Lonza
The experiment in a line: hS1P1R GTPγS Binding Assay (Assay 3a). The experiment is classed as biochemical. The gist of the method: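 Human S1P1 receptor membranes (4 μg) incubated 1 h at room temperature with 30 μM GDP, 0.1 nM [35S]GTPγS, 0.25% fatty-acid-free BSA and serially diluted agonist in pH 7.9 Tris buffer with Mg2+ and EGTA. Bound radioactivity read by WGA SPA after a further 1 h; EC50 reported unless noted.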

pEC50: −log10 of the molar value. A value given as a limit tells only on which side of the number the result lay.

T2 sequence (P21453 whole entry): as the sequence (P21453 whole entry, the tested form may be a part) above

What is called pEC50 is −log10 of the EC50, conventionally taken in molar units. As to `O=C(O)CCc1cc(Cl)c(-c2noc(-c3cn4cc(C(F)(F)F)cc(Cl)c4n3)n2)cc1F` [Entry 24], the pEC50 in experiment [1], in experiment [2] and in experiment [3] was at least 7.00 throughout.
On to `O=C(O)CCc1cc(Cl)c(-c2noc(-c3cn4cc(C(F)(F)F)cc(Br)c4n3)n2)cc1F` [Entry 49], for which the negative-log EC50 (pEC50) is at least 7.00 in experiment [1], 6.30 to 7.00 in experiment [2] and at least 7.00 in experiment [3].
`Cc1cc(CCC(=O)O)c(Cl)cc1-c1noc(-c2cn3cc(C(F)(F)F)cc(Cl)c3n2)n1` [Entry 56]: the pEC50 in experiment [1], in experiment [2] and in experiment [3] was at least 7.00 each time.
Turning to `C[C@H](CO)Oc1cc(Cl)c(-c2noc(-c3cn4cc(C(F)(F)F)cc(Cl)c4n3)n2)cc1F` [Example 93, (2R)-2-[(5-chloro-4-{5-[8-chloro-6-(trifluoromethyl)imidazo[1,2-a]pyridin-2-yl]-1,2,4-oxadiazol-3-yl}-2-fluorophenyl)oxy]propan-1-ol], the negative-log EC50 (pEC50) in experiment [1], in experiment [2] and in experiment [3] was at least 7.00 in each case.
In the case of `O=C(O)CCc1cc(Cl)c(-c2nnc(-c3cn4cc(C(F)(F)F)cc(Cl)c4n3)s2)cc1F` [Example 176, 3-(5-chloro-4-{5-[8-chloro-6-(trifluoromethyl)imidazo[1,2-a]pyridin-2-yl]-1,3,4-thiadiazol-2-yl}-2-fluorophenyl)propanoic acid], the pEC50 in experiment [1], in experiment [2] and in experiment [3] was at least 7.00 each time.
As to `O=C(O)CCc1cc(Cl)c(-c2nnc(-c3cn4cc(C(F)(F)F)cc(Br)c4n3)s2)cc1F` [Example 177, 3-(4-{5-[8-bromo-6-(trifluoromethyl)imidazo[1,2-a]pyridin-2-yl]-1,3,4-thiadiazol-2-yl}-5-chloro-2-fluorophenyl)propanoic acid], the pEC50 in experiment [1], in experiment [2] and in experiment [3] was at least 7.00 each time.
Take `OCC(O)COc1cc(Cl)c(-c2noc(-c3cn4cc(C(F)(F)F)cc(Cl)c4n3)n2)cc1Cl` (stereo not drawn) [Example 208, 3-[(2,5-dichloro-4-{5-[8-chloro-6-(trifluoromethyl)imidazo[1,2-a]pyridin-2-yl]-1,2,4-oxadiazol-3-yl}phenyl)oxy]propane-1,2-diol]: the pEC50 is at least 7.00 in experiment [1], 6.30 to 7.00 in experiment [2] and at least 7.00 in experiment [3].
In the case of `O=C(O)CCc1cc(Cl)c(-c2nc(-c3cn4cc(C(F)(F)F)cc(Cl)c4n3)no2)cc1F` [Example 233, 3-(5-chloro-4-{3-[8-chloro-6-(trifluoromethyl)imidazo[1,2-a]pyridin-2-yl]-1,2,4-oxadiazol-5-yl}-2-fluorophenyl)propanoic acid], the figures for the negative logarithm of the EC50 (pEC50) in experiment [1], in experiment [2] and in experiment [3] were at least 7.00, 6.30 to 7.00 and 6.30 to 7.00, respectively.
Regarding `O=C(O)CCc1cc(Cl)c(-c2noc(-c3cn4cc(C(F)(F)F)cc(Cl)c4n3)n2)cc1Cl` [Example 242, 3-(2,5-dichloro-4-{5-[8-chloro-6-(trifluoromethyl)imidazo[1,2-a]pyridin-2-yl]-1,2,4-oxadiazol-3-yl}phenyl)propanoic acid], the negative-log EC50 (pEC50) in experiment [1], in experiment [2] and in experiment [3] was at least 7.00 each time.
As to `OCCOc1cc(Cl)c(-c2noc(-c3cn4cc(C(F)(F)F)cc(Cl)c4n3)n2)cc1F` [Example 263, 2-[(5-chloro-4-{5-[8-chloro-6-(trifluoromethyl)imidazo[1,2-a]pyridin-2-yl]-1,2,4-oxadiazol-3-yl}-2-fluorophenyl)oxy]ethanol], the negative-log EC50 (pEC50) is at least 7.00 in experiment [1], 6.30 to 7.00 in experiment [2] and at least 7.00 in experiment [3].
`CC(C)Oc1cc(Cl)c2nc(-c3nc(-c4cc(F)c(CCC(=O)O)cc4Cl)no3)cn2c1` [Example 301, 3-[5-chloro-4-(5-{8-chloro-6-[(1-methylethyl)oxy]imidazo[1,2-a]pyridin-2-yl}-1,2,4-oxadiazol-3-yl)-2-fluorophenyl]propanoic acid]: the results for the pEC50 in experiment [1], in experiment [2] and in experiment [3] were at least 7.00, at least 7.00 and 6.30 to 7.00, respectively.
For `O=C(O)CCc1cc(Cl)c(-c2noc(-c3cn4cc(I)cc(Cl)c4n3)n2)cc1F` [Example 302, 3-{5-chloro-4-[5-(8-chloro-6-iodoimidazo[1,2-a]pyridin-2-yl)-1,2,4-oxadiazol-3-yl]-2-fluorophenyl}propanoic acid], the negative logarithm of the EC50 (pEC50) was at least 7.00 in experiment [1], at least 7.00 in experiment [2] and 6.30 to 7.00 in experiment [3].

Values taken from patent US20100160369A1, “S1P1 Agonists and Methods of Making And Using” (EXELIXIS, INC., priority 2008, published 2010).
